# Assay results as given in PubChem BioAssay AID1919015 (Molecular Pharmacology Branch, DTP, NCI, 2023).
# pIC50: −log10 of the molar value.
# System: OVCAR-5 complex spheroids with HUVEC/MSC, viability, % test/control
# Assay: Anticancer human tumor OVCAR-5 cell line growth inhibition [AhR];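 further: spheroids exposed to compounds for 7 days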;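 on viability, T/C: 100% = DMSO vehicle control wells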
# Conditions: for pIC50: curve of first compound; for viability, T/C: stronger effect = lower value
# Method in brief: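 Agents were dosed in half-log steps down from roughly clinical Cmax, or from 10 microM where Cmax was unknown, alone and with AhR antagonists. Read-out: percent test/control growth of tumor spheroids containing HUVEC and MSC stromal cells.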
# [1] = second compound 0.1 µM, first compound 0.00316 µM
# [2] = second compound 0.1 µM, first compound 0.01 µM
# [3] = second compound 0.1 µM, first compound 0.0316 µM
# [4] = second compound 0.1 µM, first compound 0.1 µM
# [5] = second compound 0.316 µM, first compound 0.00316 µM
# [6] = second compound 0.316 µM, first compound 0.01 µM
# [7] = second compound 0.316 µM, first compound 0.0316 µM
# [8] = second compound 0.316 µM, first compound 0.1 µM
# [9] = second compound 1 µM, first compound 0.00316 µM
# [10] = second compound 1 µM, first compound 0.01 µM
# [11] = second compound 1 µM, first compound 0.0316 µM
# [12] = second compound 1 µM, first compound 0.1 µM
# [13] = second compound 3.16 µM, first compound 0.00316 µM
# [14] = second compound 3.16 µM, first compound 0.01 µM
# [15] = second compound 3.16 µM, first compound 0.0316 µM
# [16] = second compound 3.16 µM, first compound 0.1 µM
# [17] = second compound 10 µM, first compound 0.00316 µM
# [18] = second compound 10 µM, first compound 0.01 µM
# [19] = second compound 10 µM, first compound 0.0316 µM
# [20] = second compound 10 µM, first compound 0.1 µM
# [21] = second compound 0.1 µM, first compound 0.316 µM
# [22] = second compound 0.1 µM, first compound 1 µM
# [23] = second compound 0.1 µM, first compound 3.16 µM
# [24] = second compound 0.1 µM, first compound 10 µM
# [25] = second compound 0.316 µM, first compound 0.316 µM
# [26] = second compound 0.316 µM, first compound 1 µM
# [27] = second compound 0.316 µM, first compound 3.16 µM
# [28] = second compound 0.316 µM, first compound 10 µM
# [29] = second compound 1 µM, first compound 0.316 µM
# [30] = second compound 1 µM, first compound 1 µM
# [31] = second compound 1 µM, first compound 3.16 µM
# [32] = second compound 1 µM, first compound 10 µM
# [33] = second compound 3.16 µM, first compound 0.316 µM
# [34] = second compound 3.16 µM, first compound 1 µM
# [35] = second compound 3.16 µM, first compound 3.16 µM
# [36] = second compound 3.16 µM, first compound 10 µM
# [37] = second compound 10 µM, first compound 0.316 µM
# [38] = second compound 10 µM, first compound 1 µM
# [39] = second compound 10 µM, first compound 3.16 µM
# [40] = second compound 10 µM, first compound 10 µM
Structure (SMILES),pIC50 (second compound 0.1 µM),pIC50 (second compound 0.316 µM),pIC50 (second compound 1 µM),pIC50 (second compound 3.16 µM),pIC50 (second compound 10 µM),"viability, T/C [3]","viability, T/C [4]","viability, T/C [7]","viability, T/C [8]","viability, T/C [11]","viability, T/C [12]","viability, T/C [15]","viability, T/C [16]","viability, T/C [19]","viability, T/C [20]","viability, T/C [21]","viability, T/C [22]","viability, T/C [25]","viability, T/C [26]","viability, T/C [29]",also measured
CC[C@@]1(O)C(=O)OCc2c1cc1n(c2=O)Cc2cc3c(CN(C)C)c(O)ccc3nc2-1 + Cc1cncc(-c2nc(NCCc3c[nH]c4ccccc34)c3ncn(C(C)C)c3n2)c1,< 7.00,< 7.00,< 7.00,7.60,> 9.50,49.3%,52.3%,50%,52.8%,48.4%,55.8%,43.4%,50.5%,6.78%,14.5%,–,–,–,–,–,"viability, T/C (second compound 0.1 µM, first compound 0.000316 µM): 100%; viability, T/C (second compound 0.1 µM, first compound 0.001 µM): 105%; viability, T/C [1]: 97.4%; viability, T/C [2]: 87%; viability, T/C (second compound 0.316 µM, first compound 0.000316 µM): 97.9%; viability, T/C (second compound 0.316 µM, first compound 0.001 µM): 100%; viability, T/C [5]: 92.7%; viability, T/C [6]: 82.2%; viability, T/C (second compound 1 µM, first compound 0.000316 µM): 93.6%; viability, T/C (second compound 1 µM, first compound 0.001 µM): 91.6%; viability, T/C [9]: 90.1%; viability, T/C [10]: 79.9%; viability, T/C (second compound 3.16 µM, first compound 0.000316 µM): 79.2%; viability, T/C (second compound 3.16 µM, first compound 0.001 µM): 79.5%; viability, T/C [13]: 77.2%; viability, T/C [14]: 62.9%; viability, T/C (second compound 10 µM, first compound 0.000316 µM): 22.3%; viability, T/C (second compound 10 µM, first compound 0.001 µM): 24.9%; viability, T/C [17]: 26.9%; viability, T/C [18]: 16.5%"
COc1cc(C2c3cc4c(cc3C(OC3OC5COC(C)OC5C(O)C3O)C3COC(=O)C23)OCO4)cc(OC)c1O (stereo not given) + Cc1cncc(-c2nc(NCCc3c[nH]c4ccccc34)c3ncn(C(C)C)c3n2)c1,5.57,5.53,5.63,6.04,> 7.50,97.2%,97.1%,97.1%,93.3%,90%,91.6%,79.8%,80.1%,9.11%,9.43%,90.8%,68.8%,86%,67.7%,79.7%,"viability, T/C [23]: 47.8%; viability, T/C [24]: 36.1%; viability, T/C [27]: 49%; viability, T/C [28]: 37.6%; viability, T/C [30]: 62.9%; viability, T/C [31]: 46.1%; viability, T/C [32]: 37.4%; viability, T/C [33]: 67.9%; viability, T/C [34]: 48.1%; viability, T/C [35]: 37.6%; viability, T/C [36]: 33%; viability, T/C [37]: 7.81%; viability, T/C [38]: 4.62%; viability, T/C [39]: 3.56%; viability, T/C [40]: 7.82%"
COc1cccc2c1C(=O)c1c(O)c3c(c(O)c1C2=O)CC(O)(C(=O)CO)CC3OC1CC(N)C(O)C(C)O1 (stereo not given) + Cc1cncc(-c2nc(NCCc3c[nH]c4ccccc34)c3ncn(C(C)C)c3n2)c1,6.51,6.62,6.62,> 7.50,> 7.50,63.7%,54.8%,61.8%,54%,55.4%,51.6%,42.7%,42.8%,5.12%,5.58%,49%,27.9%,47.3%,26.9%,48.2%,"viability, T/C [23]: 1.4%; viability, T/C [24]: 1.85%; viability, T/C [27]: 2.85%; viability, T/C [28]: 1.79%; viability, T/C [30]: 24.3%; viability, T/C [31]: 1.27%; viability, T/C [32]: 1.8%; viability, T/C [33]: 39.3%; viability, T/C [34]: 19.3%; viability, T/C [35]: 1.16%; viability, T/C [36]: 1.68%; viability, T/C [37]: 13.1%; viability, T/C [38]: 4.16%; viability, T/C [39]: 1.37%; viability, T/C [40]: 1.89%"
Nc1ccn(C2OC(CO)C(O)C2(F)F)c(=O)n1 (stereo not given) + Cc1cncc(-c2nc(NCCc3c[nH]c4ccccc34)c3ncn(C(C)C)c3n2)c1,> 7.50,> 7.50,> 7.50,> 7.50,> 7.50,33.2%,30.1%,33.6%,30.9%,33.6%,31.5%,33.6%,33.4%,3.2%,3.6%,31.2%,33%,32%,32%,34.1%,"viability, T/C [23]: 33%; viability, T/C [24]: 31.6%; viability, T/C [27]: 32.2%; viability, T/C [28]: 31.6%; viability, T/C [30]: 33%; viability, T/C [31]: 34.9%; viability, T/C [32]: 32%; viability, T/C [33]: 32%; viability, T/C [34]: 32.5%; viability, T/C [35]: 35%; viability, T/C [36]: 34.4%; viability, T/C [37]: 4.58%; viability, T/C [38]: 4.3%; viability, T/C [39]: 6.36%; viability, T/C [40]: 9.03%"
Nc1ncn(C2CC(O)C(CO)O2)c(=O)n1 (stereo not given) + Cc1cncc(-c2nc(NCCc3c[nH]c4ccccc34)c3ncn(C(C)C)c3n2)c1,< 6.00,< 6.00,< 6.00,< 6.00,> 8.50,87.6%,80.7%,90%,74.8%,85.4%,78.3%,70.4%,64%,8.47%,8.64%,69%,62.7%,65.5%,59%,61.5%,"viability, T/C [1]: 98.3%; viability, T/C [2]: 94.2%; viability, T/C [5]: 93.8%; viability, T/C [6]: 91.7%; viability, T/C [9]: 96.2%; viability, T/C [10]: 85.5%; viability, T/C [30]: 61.8%; viability, T/C [13]: 79.8%; viability, T/C [14]: 77.8%; viability, T/C [33]: 59.8%; viability, T/C [34]: 51.2%; viability, T/C [17]: 10.4%; viability, T/C [18]: 10.1%; viability, T/C [37]: 8.49%; viability, T/C [38]: 11.6%"
